The values that follow come from paper PMC9227536, “Prediction of Pharmacokinetics of IDP-73152 in Humans Using Physiologically-Based Pharmacokinetics” (Pharmaceutics, 2022).

Type in all cases: in vitro ADME
Data set [1] is described as follows: Stability in plasma, dog. To be noted: dogs plasma. Here is the method: (§1) The unbound fractions of IDP-73152 in various matrices were measured according to the manufacturer's instructions for the rapid equilibrium dialysis (RED) device (ThermoFisher Scientific, Waltham, MA, USA). Briefly, IDP-73152 was added to the plasma or the microsomal/hepatocyte incubation buffer from various species (i.e., mouse, rat, dog, and human for microsomal incubation; rat for hepatocyte incubation) to obtain final concentrations of the compound at 0.3, 1, and 3 μM. After the membrane insert was placed in the RED plate, the solution containing IDP-73152 was added (400 μL) to the sample chamber, and the dialysis buffer (600 μL) was added to the buffer chamber. The RED plate was sealed with parafilm and then incubated at 37 °C in the orbital shaker (Lab Companion, Daejeon, Korea) at 100 rpm for 5 h. […] The IDP-73152 concentration in the buffer/sample chambers (i.e., CBuffer Chamber and CSample Chamber) was determined by an assay. Thus, the fraction unbound was defined as:(2) % Fraction unbound=(CBuffer Chamber/CSample Chamber)×100% When necessary, the stability of IDP-73152 in the matrix was also determined at 5 h. […] Accordingly, the kinetics of IDP-73152 instability were determined in the rat blood at a final concentration of 0.3 μM. […]

Data set [2] can be described thus: Blood partitioning (LC-MS/MS-based depletion method), rat. To be noted: whole blood, rats blood, 0.3, 1, 3 μM, read-out: BP (blood-to-plasma concentration ratio). On the procedure:
(§2) In this study, the partitioning of IDP-73152 in blood samples obtained from mice, rats, dogs, and humans was determined using the LC-MS/MS-based depletion method with slight modifications. DP-73152 was added to an aliquot (1 mL) of blank blood or plasma at a final concentration of 0.3, 1, or 3 μM. The mixture was incubated at 37 °C in a water bath for 60 min. After the incubation, the plasma was separated by centrifugation of the blood samples for 5 min at 10,000× g/4 °C and stored at -80 °C until analysis. The blood-to-plasma concentration ratio (BP) was calculated using the equation:(3) BP=[…], where […] is the concentration of the compound at the corresponding blood concentration in the plasma, and CPL is the concentration from the plasma sample separated from the incubated blood.

Data set [3] is described as follows: Caco-2 cell bidirectional permeability. To be noted: human; for recovery at 2 h, 10 µM: Caco-2, Caco-2. On the procedure: In this study, bidirectional permeability assays were conducted as described in the literature, with minor modifications. Briefly, Caco-2 cells (KCLB, Seoul, Korea) were seeded on Transwell® inserts (Corning Inc., Glendale, AZ, USA) and grown in a humidified atmosphere of 5% CO2 at 37 °C to form a confluent monolayer over 3 weeks. On day 21, after seeding, the integrity of the cell monolayer was assessed by measuring the transepithelial electrical resistance using an epithelial voltohmmeter (EVOM and EVOMX, World Precision Instruments, Sarasota, FL, USA). The medium in donor and receiver compartments was then replaced with 5 mM of HEPES in HBSS, and preincubated for 10 min at 37 °C. The permeability study was initiated by adding IDP-73152 (in a 10 µM final concentration in the chambers) to an apical insert (for apical-to-basolateral (A-to-B) transport) or a basolateral chamber (for basolateral-to-apical (B-to-A) transport). Samples were collected from both compartments at 30 min intervals up to 2 h. Throughout the study, the temperature and atmosphere of the compartments were maintained at 37 °C and 5% CO2. The samples were stored at −80 °C until analysis and the concentration of the compound was determined by LC-MS/MS assay for IDP-73152 [10]. The apparent permeability coefficient (Papp, in cm/s) was calculated using the following equation:(1) Papp=(dQ/dt/C0×A) where dQ/dt is the rate of IDP-73152 transport across monolayers (nmol/s), C0 is the initial concentration of IDP-73152 (10 μM), and A is the surface area of the insert (1.12 cm^2). The efflux ratio of IDP-73152 in the Caco-2 cell system was calculated by the ratio of Papp from B-to-A transport (Papp,B-to-A) to Papp from A-to-B transport (Papp,A-to-B).

Data set [4] in a line: Blood partitioning (LC-MS/MS-based depletion method), human. To be noted: whole blood, humans blood, 0.3, 1, 3 μM, read-out: BP (blood-to-plasma concentration ratio). Here is the method:
as §2

The subject of data set [5] is hepatic CYP3A. Description: Preliminary studies of metabolic pathway.
A short description of data set [6]: Unbound fraction in plasma (rapid equilibrium dialysis), human. To be noted: humans plasma, 0.3, 1, 3 μM, RED 5 h, read-out: fu,p. Here is the method:
The unbound fractions of IDP-73152 in various matrices were measured according to the manufacturer’s instructions for the rapid equilibrium dialysis (RED) device (ThermoFisher Scientific, Waltham, MA, USA). Briefly, IDP-73152 was added to the plasma or the microsomal/hepatocyte incubation buffer from various species (i.e., mouse, rat, dog, and human for microsomal incubation; rat for hepatocyte incubation) to obtain final concentrations of the compound at 0.3, 1, and 3 μM. After the membrane insert was placed in the RED plate, the solution containing IDP-73152 was added (400 µL) to the sample chamber, and the dialysis buffer (600 μL) was added to the buffer chamber. The RED plate was sealed with parafilm and then incubated at 37 °C in the orbital shaker (Lab Companion, Daejeon, Korea) at 100 rpm for 5 h. After a 50 μL aliquot was aspirated from both the sample and buffer chambers, an equal volume of protein-free buffer or blank medium was replaced in the aspirated sample or buffer to render the matrices compositionally identical. The IDP-73152 concentration in the buffer/sample chambers (i.e., CBuffer Chamber and CSample Chamber) was determined by an assay. Thus, the fraction unbound was defined as:(2) % Fraction unbound=(CBuffer Chamber/CSample Chamber)×100%

Data set [7] can be described thus: Stability in plasma, mouse. To be noted: mice plasma. On the procedure: as §1

Read-outs that look alike come from different tables or passages of the source.

On to `CC(C)(C)[C@H](NC(=O)[C@H](CC1CCCC1)CN(O)C=O)C(=O)N1CCC(NCc2cc(F)c(F)cc2F)CC1` [IDP-73152], for which the “percentage remaining in plasma at 5 h” value is given as 101 ± 6% in data set [1] (5 h, 37 °C) and 92.3 ± 2.7% in data set [7] (5 h, 37 °C). The “stability in plasma” value in data set [1] (preliminary study) and in data set [7] (preliminary study) was “stable” throughout. Moreover, the blood plasma ratio at 60 min in data set [2] was 1.56 ± 0.37; in data set [4], 1.24 ± 0.08. Further, the recovery at 2 h, 10 µM in data set [3] (read-out: recovery, A to B transport) stood at 96.6 ± 5.1%; in data set [3] (read-out: recovery, B to A transport), 93.4 ± 3%. Moreover, in data set [3] (Caco-2, Papp,B-to-A / Papp,A-to-B), the efflux ratio at 2 h, 10 µM was below 2. The compound further showed an apparent permeability from apical to basolateral (Papp A→B) at 2 h, 10 µM in data set [3] (Caco-2 monolayer, 10 µM, apical-to-basolateral) of 31.2 ± 1.93 ×10⁻⁶ cm/s. The Papp B→A at 2 h, 10 µM in data set [3] (Caco-2 monolayer, 10 µM, basolateral-to-apical) is 49.5 ± 3.5 ×10⁻⁶ cm/s. In addition, the “primary metabolic pathway” value in data set [5] is on record as “mediated by hepatic CYP3A”. Also, in data set [6], the fraction unbound at 5 h worked out at 0.0744 ± 0.0019.
